Values joined by “and” are separate entries in the source; they are usually repeats but may differ in a detail not shown here. Identical values can stand only once. Inconclusive results and toxic doses are left out. Rule as the data show it: active = T/C of 150% or more; inactive = T/C below 125%.
System: L1210 leukemia ip in BDF1 mice, survival T/C
Test: NCI In Vivo Anticancer Drug Screen. Data for tumor model L1210 Leukemia (intraperitoneal) in B6D2F1 (BDF1) mice
Conditions: endpoint: mean survival time, higher = longer survival
Outline: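 Tumor cells were implanted, animals were treated, and survival was followed. The result divides the treated measurement by the vehicle-control measurement.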

[1] = dose: 100.0 mg/kg/injection, schedule: Q01DX009 (ip), vehicle: saline with Tween-80
[2] = dose: 100.0 mg/kg/injection, schedule: Q04DX003 (ip), vehicle: saline with Tween-80
[3] = dose: 200.0 mg/kg/injection, schedule: Q01DX009 (ip), vehicle: saline with Tween-80
[4] = dose: 200.0 mg/kg/injection, schedule: Q04DX003 (ip), vehicle: saline with Tween-80
[5] = dose: 400.0 mg/kg/injection, schedule: Q01DX009 (ip), vehicle: saline with Tween-80
[6] = dose: 400.0 mg/kg/injection, schedule: Q04DX003 (ip), vehicle: saline with Tween-80
[7] = dose: 100.0 mg/kg/injection, schedule: Q01DX001 (ip), vehicle: saline
[8] = dose: 200.0 mg/kg/injection, schedule: Q01DX001 (ip), vehicle: saline
[9] = dose: 400.0 mg/kg/injection, schedule: Q01DX001 (ip), vehicle: saline
[10] = dose: 100.0 mg/kg/injection, schedule: Q04DX003 (ip), vehicle: saline
[11] = dose: 200.0 mg/kg/injection, schedule: Q04DX003 (ip), vehicle: saline
[12] = dose: 400.0 mg/kg/injection, schedule: Q04DX003 (ip), vehicle: saline
[13] = dose: 25.0 mg/kg/injection, schedule: Q04DX002 (ip), vehicle: saline with Tween-80
[14] = dose: 50.0 mg/kg/injection, schedule: Q04DX002 (ip), vehicle: saline with Tween-80
[15] = dose: 100.0 mg/kg/injection, schedule: Q01DX009 (ip), vehicle: Klucel (hydroxypropylcellulose) (HPC)
[16] = dose: 200.0 mg/kg/injection, schedule: Q01DX009 (ip), vehicle: Klucel (hydroxypropylcellulose) (HPC)
[17] = dose: 400.0 mg/kg/injection, schedule: Q01DX009 (ip), vehicle: Klucel (hydroxypropylcellulose) (HPC)

Measured: T/C

CNC(=O)C1=Cc2cc(Cl)ccc2OC1
inactive: dose: 75.0 mg/kg/injection, schedule: Q04DX003 (ip), vehicle: saline with Tween-80 98 % of control | dose: 150.0 mg/kg/injection, schedule: Q04DX003 (ip), vehicle: saline with Tween-80 92 % of control | dose: 300.0 mg/kg/injection, schedule: Q04DX003 (ip), vehicle: saline with Tween-80 95 % of control

O=C(/C=C/c1ccccc1)Nc1ccc2ccccc2c1
inactive: [1] 107 % of control and 108 % of control | dose: 100.0 mg/kg/injection, schedule: Q04DX002 (ip), vehicle: saline with Tween-80 102 % of control and 114 % of control | [2] 92 % of control | [3] 96 % of control and 108 % of control | dose: 200.0 mg/kg/injection, schedule: Q04DX002 (ip), vehicle: saline with Tween-80 96 % of control and 102 % of control | [4] 100 % of control | [5] 94 % of control and 101 % of control | dose: 400.0 mg/kg/injection, schedule: Q04DX002 (ip), vehicle: saline with Tween-80 93 % of control and 107 % of control | [6] 101 % of control

C=C/C=C/CC=C
inactive: [7] 107 % of control | [8] 107 % of control | [9] 109 % of control

CN1CCC2(C1)C1CC3CC(C1)CC2C3 (stereo unspecified)
inactive: dose: 75.0 mg/kg/injection, schedule: Q01DX001 (ip), vehicle: saline 97 % of control

CCN(CC)CCSc1ccnc2cc(Cl)ccc12
inactive: [10] 94 % of control | [11] 96 % of control | [12] 100 % of control

Cc1cc(C(=O)O)c(C)n1-c1ccccc1
inactive: dose: 75.0 mg/kg/injection, schedule: Q01DX009 (ip), vehicle: Klucel (hydroxypropylcellulose) (HPC) 100 % of control | dose: 150.0 mg/kg/injection, schedule: Q01DX009 (ip), vehicle: Klucel (hydroxypropylcellulose) (HPC) 95 % of control | dose: 300.0 mg/kg/injection, schedule: Q01DX009 (ip), vehicle: Klucel (hydroxypropylcellulose) (HPC) 92 % of control

COC(=O)CC(c1ccc2c(c1)OCO2)N1CCOCC1 (stereo unspecified)
inactive: [7] 119 % of control | [8] 113 % of control | [9] 104 % of control

CCCCCCCC(Cc1ccccc1)C(N)=O (stereo unspecified)
inactive: [7] 97 % of control | [8] 92 % of control | [9] 92 % of control

CC1C2Cc3ccc(O)cc3C1(C)CCN2C/C=C\Cl (stereo unspecified)
inactive: [1] 94 % of control | [3] 95 % of control | [5] 95 % of control

C1CC(CCN2CCOCC2)CCN1
inactive: [7] 98 % of control | [8] 107 % of control | [9] 105 % of control

Cc1ccc(NC(=O)C(Br)C(Br)C(=O)O)cc1Cl (stereo unspecified)
inactive: [1] 107 % of control | [3] 97 % of control

S=P(Oc1ccccc1)(N1CC1)N1CC1
inactive: dose: 25.0 mg/kg/injection, schedule: Q01DX009 (ip), vehicle: acetone 98 % of control | dose: 50.0 mg/kg/injection, schedule: Q01DX009 (ip), vehicle: acetone 98 % of control | dose: 50.0 mg/kg/injection, schedule: Q04DX003 (ip), vehicle: saline 100 % of control | [7] 87 % of control | dose: 100.0 mg/kg/injection, schedule: Q01DX009 (ip), vehicle: acetone 93 % of control | [10] 92 % of control | dose: 150.0 mg/kg/injection, schedule: Q01DX009 (ip), vehicle: saline 87 % of control | [8] 94 % of control | dose: 225.0 mg/kg/injection, schedule: Q01DX009 (ip), vehicle: saline 87 % of control

CCOc1ccc(CC(=O)Nc2cc([N+](=O)[O-])ccc2NCCN(CC)CC)cc1
inactive: dose: 25.0 mg/kg/injection, schedule: Q04DX003 (ip), vehicle: other 97 % of control | dose: 50.0 mg/kg/injection, schedule: Q04DX003 (ip), vehicle: other 97 % of control | dose: 100.0 mg/kg/injection, schedule: Q04DX003 (ip), vehicle: other 95 % of control and 111 % of control

O=C(NNC(=O)OCC(Cl)(Cl)Cl)OCC(Cl)(Cl)Cl
inactive: [13] 90 % of control | [14] 87 % of control

CCCCCCCCC(Br)C(Br)CCCCCCCC(=O)O (stereo unspecified)
inactive: [13] 93 % of control | [14] 96 % of control

CCOC(=O)N/N=C/c1ccccc1O
inactive: dose: 75.0 mg/kg/injection, schedule: Q01DX001 (ip), vehicle: carboxymethylcellulose (CMC) 103 % of control | dose: 150.0 mg/kg/injection, schedule: Q01DX001 (ip), vehicle: carboxymethylcellulose (CMC) 104 % of control | dose: 300.0 mg/kg/injection, schedule: Q01DX001 (ip), vehicle: carboxymethylcellulose (CMC) 97 % of control

CCCCN(CCCC)C(=O)OCC
inactive: [7] 103 % of control | [8] 94 % of control | [9] 101 % of control

COC(=O)c1ccc(N=Nc2ncc(CCNC(=O)C(F)(F)F)[nH]2)cc1
inactive: dose: 100.0 mg/kg/injection, schedule: Q01DX001 (ip), vehicle: saline with Tween-80 97 % of control | dose: 200.0 mg/kg/injection, schedule: Q01DX001 (ip), vehicle: saline with Tween-80 96 % of control | dose: 400.0 mg/kg/injection, schedule: Q01DX001 (ip), vehicle: saline with Tween-80 111 % of control

CCOC(=O)c1c(N)sc2c1CCCC2
inactive: dose: 100.0 mg/kg/injection, schedule: Q01DX009 (ip), vehicle: saline sonified 102 % of control | [2] 95 % of control | dose: 200.0 mg/kg/injection, schedule: Q01DX009 (ip), vehicle: saline sonified 89 % of control | [4] 103 % of control | dose: 400.0 mg/kg/injection, schedule: Q01DX009 (ip), vehicle: saline sonified 105 % of control | [6] 97 % of control

CCOC(=O)Cn1c(=O)n(CC(=O)OCC)c2ccccc21
inactive: dose: 100.0 mg/kg/injection, schedule: Q04DX002 (ip), vehicle: Klucel (hydroxypropylcellulose) (HPC) 104 % of control | dose: 200.0 mg/kg/injection, schedule: Q04DX002 (ip), vehicle: Klucel (hydroxypropylcellulose) (HPC) 100 % of control | dose: 400.0 mg/kg/injection, schedule: Q04DX002 (ip), vehicle: Klucel (hydroxypropylcellulose) (HPC) 110 % of control

NC(=O)CNC(=O)OCc1ccccc1
inactive: [15] 102 % of control | dose: 100.0 mg/kg/injection, schedule: Q04DX003 (ip), vehicle: Klucel (hydroxypropylcellulose) (HPC) 94 % of control | [16] 94 % of control | dose: 200.0 mg/kg/injection, schedule: Q04DX003 (ip), vehicle: Klucel (hydroxypropylcellulose) (HPC) 105 % of control | [17] 107 % of control | dose: 400.0 mg/kg/injection, schedule: Q04DX003 (ip), vehicle: Klucel (hydroxypropylcellulose) (HPC) 94 % of control

COC1CC(OS(=O)(=O)c2ccc(C)cc2)C(O)C(C)O1 (stereo unspecified)
inactive: [7] 103 % of control | [1] 96 % of control | [2] 100 % of control | [8] 94 % of control | [3] 94 % of control | [4] 100 % of control | [9] 100 % of control | [5] 96 % of control | [6] 97 % of control

Cc1cnc2c(=N)n(C(=O)C(F)(F)F)n(C)c2n1
inactive: [15] 104 % of control | [10] 94 % of control | [16] 102 % of control | [11] 110 % of control | [12] 95 % of control

c1ccc(C2OC2(c2ccccc2)c2ccccc2)cc1 (stereo unspecified)
inactive: [15] 95 % of control | [2] 101 % of control | [16] 102 % of control | [4] 92 % of control | [17] 102 % of control | [6] 95 % of control

— PubChem BioAssay AID248 (DTP/NCI, 2004)
